The record followed here is patent publication US20260008787A1, “FUSED RING KRAS INHIBITORS FOR TREATING DISEASE” (BLOSSOMHILL THERAPEUTICS, INC., priority 2022, published 2026).

What all share (format): cell-based
Assay [1] concerns GP2D (KRAS G12D). Nature of the assay: Cell proliferation assay (CellTiter-Glo, 72 hours), GP2D. The following applies: GP2d, 72 h, 384-well, CellTiter-Glo 2.0. Here is the method: (§1) Two thousand KRAS mutant cells per well were seeded in 384-well white plate and then treated with indicated compounds for 72 hours at 37° C. and 5% CO2. Cell proliferation was measured using CellTiter-Glo 2.0 luciferase-based ATP detection assay (Promega, Madison, WI) following the manufacturer's protocol. IC50 values were determined using Prism software (GraphPad Software, San Diego, CA).

Assay [2] concerns AGS (G12D). As to the kind of experiment: Cell proliferation assay (CellTiter-Glo, 72 hours), AGS. The conditions noted are these: 72 h, 384-well, CellTiter-Glo 2.0. Here is the method: as §1
In assay [3] the test system is SW620 (KRAS G12V). Nature of the assay: Cell proliferation assay (CellTiter-Glo, 72 hours), SW620. The conditions noted are these: Homo sapiens, SW-620, 72 h, 384-well, CellTiter-Glo 2.0. Here is the method: as §1

Some results are limits rather than exact numbers.

Regarding `C#Cc1c(F)ccc2cc(O)cc(-c3nc4c5c(nc(OC[C@@]67CCCN6C[C@H](F)C7)nc5c3F)N(C)[C@@H](CO)CO4)c12` [Example 27, 5-ethynyl-6-fluoro-4-[(9S)-4-fluoro-2-{[(2R,7aS)-2-fluorotetrahydro-1H-pyrrolizin-7a(5H)-yl]methoxy}-9-(hydroxymethyl)-10-methyl-9,10-dihydro-8H-7-oxa-1,3,6,10-tetraazacyclohepta[1,2,3-de]naphthalen-5-yl]naphthalen-2-ol], the IC50 in assay [1] and in assay [2] was above 3000 nM throughout.

For `CCc1c(F)ccc2cc(O)cc(-c3nc4c5c(nc(OC[C@@]67CCCN6C[C@H](F)C7)nc5c3F)N(C)[C@@H](CO)CO4)c12` [Example 28, 5-ethyl-6-fluoro-4-[(9S)-4-fluoro-2-{[(2R,7aS)-2-fluorotetrahydro-1H-pyrrolizin-7a(5H)-yl]methoxy}-9-(hydroxymethyl)-10-methyl-9,10-dihydro-8H-7-oxa-1,3,6,10-tetraazacyclohepta[1,2,3-de]naphthalen-5-yl]naphthalen-2-ol], the concentration for half-maximal inhibition (IC50) in assay [1], in assay [2] and in assay [3] was above 3000 nM each time.

Regarding `C#Cc1c(F)ccc2cc(O)cc(-c3nc4c5c(nc(OC[C@@]67CCCN6C[C@H](F)C7)nc5c3F)N3C[C@H](O)CC[C@H]3CO4)c12` [Example 29, (8aS,11R)-5-(8-ethynyl-7-fluoro-3-hydroxynaphthalen-1-yl)-4-fluoro-2-{[(2R,7aS)-2-fluorotetrahydro-1H-pyrrolizin-7a(5H)-yl]methoxy}-8,8a,9,10,11,12-hexahydro-7-oxa-1,3,6,12a-tetraazabenzo[4,5]cyclohepta[1,2,3-de]naphthalen-11-ol], the IC50 in assay [1] is 364 nM; in assay [2], 760 nM; in assay [3], above 3000 nM.

Turning to `C#Cc1c(F)ccc2cc(O)cc(-c3nc4c5c(nc(OC[C@@]67CCCN6C[C@H](F)C7)nc5c3F)N3C[C@](C)(O)CC[C@H]3CO4)c12` [Example 30, (8aS,11R)-5-(8-ethynyl-7-fluoro-3-hydroxynaphthalen-1-yl)-4-fluoro-2-{[(2R,7aS)-2-fluorotetrahydro-1H-pyrrolizin-7a(5H)-yl]methoxy}-11-methyl-8,8a,9,10,11,12-hexahydro-7-oxa-1,3,6,12a-tetraazabenzo[4,5]cyclohepta[1,2,3-de]naphthalen-11-ol], the IC50 in assay [1] turned out to be 50.5 nM; in assay [2] it was 97.3 nM; in assay [3] it was 139 nM.

For `C#Cc1c(F)ccc2cc(O)cc(-c3nc4c5c(nc(OC[C@@]67CCCN6C[C@H](F)C7)nc5c3F)N[C@@H](C3CC3)CO4)c12` [Example 31, 4-[(9S)-9-cyclopropyl-4-fluoro-2-{[(2R,7aS)-2-fluorotetrahydro-1H-pyrrolizin-7a(5H)-yl]methoxy}-9,10-dihydro-8H-7-oxa-1,3,6,10-tetraazacyclohepta[1,2,3-de]naphthalen-5-yl]-5-ethynyl-6-fluoronaphthalen-2-ol], the IC50 in assay [1] is 1880 nM; in assay [2], above 3000 nM; in assay [3], above 3000 nM.

In the case of `C#Cc1c(F)ccc2cc(O)cc(-c3nc4c5c(nc(OC[C@@]67CCCN6C[C@H](F)C7)nc5c3F)N(C)[C@@H](C3CC3)CO4)c12` [Example 32, 4-[(9S)-9-cyclopropyl-4-fluoro-2-{[(2R,7aS)-2-fluorotetrahydro-1H-pyrrolizin-7a(5H)-yl]methoxy}-10-methyl-9,10-dihydro-8H-7-oxa-1,3,6,10-tetraazacyclohepta[1,2,3-de]naphthalen-5-yl]-5-ethynyl-6-fluoronaphthalen-2-ol], the 50% inhibitory concentration (IC50) in assay [1] is 293 nM; in assay [2], 623 nM; in assay [3], 693 nM.

With `CCc1c(F)ccc2cc(O)cc(-c3nc4c5c(nc(OC[C@@]67CCCN6C[C@H](F)C7)nc5c3F)N[C@@H](C3CC3)CO4)c12` [Example 33, 4-[(9S)-9-cyclopropyl-4-fluoro-2-{[(2R,7aS)-2-fluorotetrahydro-1H-pyrrolizin-7a(5H)-yl]methoxy}-9,10-dihydro-8H-7-oxa-1,3,6,10-tetraazacyclohepta[1,2,3-de]naphthalen-5-yl]-5-ethyl-6-fluoronaphthalen-2-ol], the results for the IC50 in assay [1], in assay [2] and in assay [3] were 962 nM, 2840 nM and 1530 nM, respectively.

With `C#Cc1c(F)ccc2cc(O)cc(-c3nc4c5c(nc(OC[C@@]67CCCN6C[C@H](F)C7)nc5c3F)N[C@@H](C3CCC3)CO4)c12` [Example 35, 4-[(9S)-9-cyclobutyl-4-fluoro-2-{[(2R,7aS)-2-fluorotetrahydro-1H-pyrrolizin-7a(5H)-yl]methoxy}-9,10-dihydro-8H-7-oxa-1,3,6,10-tetraazacyclohepta[1,2,3-de]naphthalen-5-yl]-5-ethynyl-6-fluoronaphthalen-2-ol], the half-inhibitory concentration (IC50) in assay [1], in assay [2] and in assay [3] was above 3000 nM in each case.

On to `CCc1c(F)ccc2cc(O)cc(-c3nc4c5c(nc(OC[C@@]67CCCN6C/C(=C\F)C7)nc5c3F)N3CCCC[C@H]3CO4)c12` [Example 41, 5-ethyl-6-fluoro-4-[(8aS)-4-fluoro-2-{[(2Z,7aS)-2-(fluoromethylidene)tetrahydro-1H-pyrrolizin-7a(5H)-yl]methoxy}-8,8a,9,10,11,12-hexahydro-7-oxa-1,3,6,12a-tetraazabenzo[4,5]cyclohepta[1,2,3-de]naphthalen-5-yl]naphthalen-2-ol], for which the figures for the IC50 in assay [1], in assay [2] and in assay [3] were 20.7 nM, 43.1 nM and 42 nM, respectively.

As for `C#Cc1c(F)ccc2cc(O)cc(-c3nc4c5c(nc(OC[C@@]67CCCN6C[C@H](F)C7)nc5c3F)N[C@@H](C(C)C)CO4)c12` [Example 47, 5-ethynyl-6-fluoro-4-[(9S)-4-fluoro-2-{[(2R,7aS)-2-fluorotetrahydro-1H-pyrrolizin-7a(5H)-yl]methoxy}-9-(propan-2-yl)-9,10-dihydro-8H-7-oxa-1,3,6,10-tetraazacyclohepta[1,2,3-de]naphthalen-5-yl]naphthalen-2-ol], the 50% inhibitory concentration (IC50) in assay [1] was at least 6000 nM; in assay [2] it was 789 nM; in assay [3] it was above 3000 nM.

As to `C#Cc1c(F)ccc2cc(O)cc(-c3nc4c5c(nc(OC[C@@]67CCCN6C[C@H](F)C7)nc5c3F)N[C@@H](CCOC)CO4)c12` [Example 48, 5-ethynyl-6-fluoro-4-[(9S)-4-fluoro-2-{[(2R,7aS)-2-fluorotetrahydro-1H-pyrrolizin-7a(5H)-yl]methoxy}-9-(2-methoxyethyl)-9,10-dihydro-8H-7-oxa-1,3,6,10-tetraazacyclohepta[1,2,3-de]naphthalen-5-yl]naphthalen-2-ol], the IC50 in assay [1] was 2200 nM; in assay [2] it was above 3000 nM; in assay [3] it was above 3000 nM.

Turning to `C#Cc1c(F)ccc2cc(O)cc(-c3nc4c5c(nc(OC[C@@]67CCCN6C[C@H](F)C7)nc5c3F)N(C)[C@@H](C(C)C)CO4)c12` [Example 51, 5-ethynyl-6-fluoro-4-[(9S)-4-fluoro-2-{[(2R,7aS)-2-fluorotetrahydro-1H-pyrrolizin-7a(5H)-yl]methoxy}-10-methyl-9-(propan-2-yl)-9,10-dihydro-8H-7-oxa-1,3,6,10-tetraazacyclohepta[1,2,3-de]naphthalen-5-yl]naphthalen-2-ol], the results for the IC50 in assay [1], in assay [2] and in assay [3] were 216 nM, above 3000 nM and 2270 nM, respectively.

For `C#Cc1c(F)ccc2cc(O)cc(-c3nc4c5c(nc(OC[C@@]67CCCN6C[C@H](F)C7)nc5c3F)N3CCC[C@@](C)(O)[C@H]3CO4)c12` [Example 53, (8aR,9R)-5-(8-ethynyl-7-fluoro-3-hydroxynaphthalen-1-yl)-4-fluoro-2-{[(2R,7aS)-2-fluorotetrahydro-1H-pyrrolizin-7a(5H)-yl]methoxy}-9-methyl-8,8a,9,10,11,12-hexahydro-7-oxa-1,3,6,12a-tetraazabenzo[4,5]cyclohepta[1,2,3-de]naphthalen-9-ol], the IC50 in assay [1] worked out at 34.5 nM; in assay [2], 113 nM.

For `C#Cc1c(F)ccc2cc(O)cc(-c3nc4c5c(nc(OC[C@@]67CCCN6C[C@H](F)C7)nc5c3F)N(C(C)C)[C@@H](C)CO4)c12` [Example 56, 5-ethynyl-6-fluoro-4-[(9S)-4-fluoro-2-{1[(2R,7aS)-2-fluorotetrahydro-1H-pyrrolizin-7a(5H)-yl]methoxy}-9-methyl-10-(propan-2-yl)-9,10-dihydro-8H-7-oxa-1,3,6,10-tetraazacyclohepta[1,2,3-de]naphthalen-5-yl]naphthalen-2-ol], the IC50 worked out at 2.45 nM in assay [1], 5.14 nM in assay [2] and 3.51 nM in assay [3].

In the case of `C#Cc1c(F)ccc2cc(O)cc(-c3nc4c5c(nc(OC[C@@]67CCCN6C[C@H](F)C7)nc5c3F)N3CC(F)(F)CC[C@H]3CO4)c12` [Example 98, 5-ethynyl-6-fluoro-4-[(8aS)-4,11,11-trifluoro-2-{[(2R,7aS)-2-fluorotetrahydro-1H-pyrrolizin-7a(5H)-yl]methoxy}-8,8a,9,10,11,12-hexahydro-7-oxa-1,3,6,12a-tetraazabenzo[4,5]cyclohepta[1,2,3-de]naphthalen-5-yl]naphthalen-2-ol], in assay [1], inhibition was half-maximal at 114 nM (IC50).

With `C#Cc1c(F)ccc2cc(O)cc(-c3nc4c5c(nc(OC[C@@]67CCCN6C[C@H](F)C7)nc5c3F)N3CCC[C@](C)(O)[C@@H]3CO4)c12` [Example 113, (8aS,9S)-5-(8-ethynyl-7-fluoro-3-hydroxynaphthalen-1-yl)-4-fluoro-2-{[(2R,7aS)-2-fluorotetrahydro-1H-pyrrolizin-7a(5H)-yl]methoxy}-9-methyl-8,8a,9,10,11,12-hexahydro-7-oxa-1,3,6,12a-tetraazabenzo[4,5]cyclohepta[1,2,3-de]naphthalen-9-ol], the IC50 in assay [1] and in assay [2] was above 3000 nM each time.
